Residues, ends and D or L forms follow the SMILES beside them.
Each compound was assayed on E. coli BL21. Conditions: BL21, 17 h.
Summary of the method: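 EUCAST broth microdilution in Mueller-Hinton medium; end-exponential culture diluted to 0.005 McF (~1.5x10^6 CFU/mL) before 1:1 mixing with two-fold peptide dilutions (0.75 to 100 μg/mL), triplicates.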

| SMILES | BL21 MIC |
| --- | --- |
| CC[C@H](C)[C@H](NC(=O)CNC(=O)[C@H](CC(C)C)NC(=O)[C@@H](N)CCCNC(=N)N)C(=O)N[C@@H](C)C(=O)N[C@@H](C)C(=O)N[C@@H](C)C(=O)N[C@@H](CC(C)C)C(=O)N[C@@H](CCCNC(=N)N)C(=O)N[C@@H](CCCNC(=N)N)C(=O)N1CCC[C@H]1C(=O)N[C@@H](CCCNC(=N)N)C(=O)N[C@@H](CC(C)C)C(=O)NCC(=O)N[C@H](C(=O)N[C@@H](C)C(=O)N[C@H](C(=O)N[C@@H](C)C(=O)N[C@@H](CC(C)C)C(=O)N[C@@H](CCCNC(=N)N)C(=O)N[C@@H](CCCNC(=N)N)C(=O)O)C(C)C)[C@@H](C)CC [Peptide P33-V6A] (H-RLGIAAALRRPRLGIAVALRR-OH) | 6.25 µg/mL |
| CC[C@H](C)[C@H](NC(=O)CNC(=O)[C@H](CC(C)C)NC(=O)[C@H](CCCNC(=N)N)NC(=O)[C@@H]1CCCN1C(=O)[C@H](CCCNC(=N)N)NC(=O)[C@H](CCCNC(=N)N)NC(=O)[C@H](CC(C)C)NC(=O)[C@H](C)NC(=O)[C@@H](NC(=O)[C@H](C)NC(=O)[C@@H](NC(=O)CNC(=O)[C@H](CC(C)C)NC(=O)[C@@H](N)CCCNC(=N)N)[C@@H](C)CC)C(C)C)C(=O)N[C@@H](C)C(=O)N[C@@H](C)C(=O)N[C@@H](C)C(=O)N[C@@H](CC(C)C)C(=O)N[C@@H](CCCNC(=N)N)C(=O)N[C@@H](CCCNC(=N)N)C(=O)O [Peptide P33-V17A] (H-RLGIAVALRRPRLGIAAALRR-OH) | 6.25 µg/mL |
| CC[C@H](C)[C@H](NC(=O)CNC(=O)[C@H](CC(C)C)NC(=O)[C@H](CCCNC(=N)N)NC(=O)[C@@H]1CCCN1C(=O)[C@H](CC(C)C)NC(=O)[C@H](C)NC(=O)[C@@H](NC(=O)[C@H](C)NC(=O)[C@@H](NC(=O)CNC(=O)[C@H](CC(C)C)NC(=O)[C@@H](N)CCCNC(=N)N)[C@@H](C)CC)C(C)C)C(=O)N[C@@H](C)C(=O)N[C@H](C(=O)N[C@@H](C)C(=O)N[C@@H](CC(C)C)C(=O)N[C@@H](CCCNC(=N)N)C(=O)O)C(C)C [Peptide P33_3R_1] (H-RLGIAVALPRLGIAVALR-OH) | 12.5 µg/mL |
| CC[C@H](C)[C@H](NC(=O)CNC(=O)[C@H](CC(C)C)NC(=O)[C@@H]1CCCN1C(=O)[C@H](CCCNC(=N)N)NC(=O)[C@H](CC(C)C)NC(=O)[C@H](C)NC(=O)[C@@H](NC(=O)[C@H](C)NC(=O)[C@@H](NC(=O)CNC(=O)[C@H](CC(C)C)NC(=O)[C@@H](N)CCCNC(=N)N)[C@@H](C)CC)C(C)C)C(=O)N[C@@H](C)C(=O)N[C@H](C(=O)N[C@@H](C)C(=O)N[C@@H](CC(C)C)C(=O)N[C@@H](CCCNC(=N)N)C(=O)O)C(C)C [Peptide P33_3R_2] (H-RLGIAVALRPLGIAVALR-OH) | 25.00 µg/mL |
| CC[C@H](C)[C@H](NC(=O)CNC(=O)[C@H](CC(C)C)NC(=O)[C@H](C)NC(=O)[C@@H]1CCCN1C(=O)[C@H](CCCNC(=N)N)NC(=O)[C@H](C)NC(=O)[C@H](CC(C)C)NC(=O)[C@H](C)NC(=O)[C@@H](NC(=O)[C@H](C)NC(=O)[C@@H](NC(=O)CNC(=O)[C@H](CC(C)C)NC(=O)[C@@H](N)CCCNC(=N)N)[C@@H](C)CC)C(C)C)C(=O)N[C@@H](C)C(=O)N[C@H](C(=O)N[C@@H](C)C(=O)N[C@@H](CC(C)C)C(=O)N[C@@H](C)C(=O)N[C@@H](CCCNC(=N)N)C(=O)O)C(C)C [Peptide P33_3R_3] (H-RLGIAVALARPALGIAVALAR-OH) | >100 µg/mL |
| CC[C@H](C)[C@H](NC(=O)CNC(=O)[C@H](CC(C)C)NC(=O)[C@H](C)NC(=O)[C@@H]1CCCN1C(=O)[C@H](C)NC(=O)[C@H](CCCNC(=N)N)NC(=O)[C@H](CC(C)C)NC(=O)[C@H](C)NC(=O)[C@@H](NC(=O)[C@H](C)NC(=O)[C@@H](NC(=O)CNC(=O)[C@H](CC(C)C)NC(=O)[C@@H](N)CCCNC(=N)N)[C@@H](C)CC)C(C)C)C(=O)N[C@@H](C)C(=O)N[C@H](C(=O)N[C@@H](C)C(=O)N[C@@H](CC(C)C)C(=O)N[C@@H](C)C(=O)N[C@@H](CCCNC(=N)N)C(=O)O)C(C)C [Peptide P33_3R_4] (H-RLGIAVALRAPALGIAVALAR-OH) | 50.00 µg/mL |
| CC[C@H](C)[C@H](NC(=O)CNC(=O)[C@H](CC(C)C)NC(=O)[C@H](CCCNC(=N)N)NC(=O)[C@@H]1CCCN1C(=O)[C@H](CCCNC(=N)N)NC(=O)[C@H](CC(C)C)NC(=O)[C@H](C)NC(=O)[C@@H](NC(=O)[C@H](C)NC(=O)[C@@H](NC(=O)CNC(=O)[C@H](CC(C)C)NC(=O)[C@@H](N)CCCNC(=N)N)[C@@H](C)CC)C(C)C)C(=O)N[C@@H](C)C(=O)N[C@H](C(=O)N[C@@H](C)C(=O)N[C@@H](CC(C)C)C(=O)N[C@@H](CCCNC(=N)N)C(=O)O)C(C)C [Peptide P33_4R_1] (H-RLGIAVALRPRLGIAVALR-OH) | 6.25 µg/mL |
| CC[C@H](C)[C@H](NC(=O)CNC(=O)[C@H](CC(C)C)NC(=O)[C@H](CCCNC(=N)N)NC(=O)[C@@H]1CCCN1C(=O)[C@H](CCCNC(=N)N)NC(=O)[C@H](CCCNC(=N)N)NC(=O)[C@H](CC(C)C)NC(=O)[C@H](C)NC(=O)[C@@H](NC(=O)[C@H](C)NC(=O)[C@@H](NC(=O)CNC(=O)[C@H](CC(C)C)NC(=O)[C@H](C)N)[C@@H](C)CC)C(C)C)C(=O)N[C@@H](C)C(=O)N[C@H](C(=O)N[C@@H](C)C(=O)N[C@@H](CC(C)C)C(=O)N[C@@H](C)C(=O)N[C@@H](CCCNC(=N)N)C(=O)O)C(C)C [Peptide P33_4R_2] (H-ALGIAVALRRPRLGIAVALAR-OH) | 25.00 µg/mL |
| CC[C@H](C)[C@H](NC(=O)CNC(=O)[C@H](CC(C)C)NC(=O)[C@H](CCCNC(=N)N)NC(=O)[C@@H]1CCCN1C(=O)[C@H](CCCNC(=N)N)NC(=O)[C@H](C)NC(=O)[C@H](CC(C)C)NC(=O)[C@H](C)NC(=O)[C@@H](NC(=O)[C@H](C)NC(=O)[C@@H](NC(=O)CNC(=O)[C@H](CC(C)C)NC(=O)[C@@H](N)CCCNC(=N)N)[C@@H](C)CC)C(C)C)C(=O)N[C@@H](C)C(=O)N[C@H](C(=O)N[C@@H](C)C(=O)N[C@@H](CC(C)C)C(=O)N[C@@H](C)C(=O)N[C@@H](CCCNC(=N)N)C(=O)O)C(C)C [Peptide P33_4R_3] (H-RLGIAVALARPRLGIAVALAR-OH) | 50.00 µg/mL |
| CC[C@H](C)[C@H](NC(=O)CNC(=O)[C@H](CC(C)C)NC(=O)[C@H](CCCNC(=N)N)NC(=O)[C@@H]1CCCN1C(=O)[C@H](C)NC(=O)[C@H](CCCNC(=N)N)NC(=O)[C@H](CC(C)C)NC(=O)[C@H](C)NC(=O)[C@@H](NC(=O)[C@H](C)NC(=O)[C@@H](NC(=O)CNC(=O)[C@H](CC(C)C)NC(=O)[C@@H](N)CCCNC(=N)N)[C@@H](C)CC)C(C)C)C(=O)N[C@@H](C)C(=O)N[C@H](C(=O)N[C@@H](C)C(=O)N[C@@H](CC(C)C)C(=O)N[C@@H](C)C(=O)N[C@@H](CCCNC(=N)N)C(=O)O)C(C)C [Peptide P33_4R_4] (H-RLGIAVALRAPRLGIAVALAR-OH) | 12.50 µg/mL |
| CC[C@H](C)[C@H](NC(=O)CNC(=O)[C@H](CC(C)C)NC(=O)[C@H](C)NC(=O)[C@@H]1CCCN1C(=O)[C@H](CCCNC(=N)N)NC(=O)[C@H](CCCNC(=N)N)NC(=O)[C@H](CC(C)C)NC(=O)[C@H](C)NC(=O)[C@@H](NC(=O)[C@H](C)NC(=O)[C@@H](NC(=O)CNC(=O)[C@H](CC(C)C)NC(=O)[C@@H](N)CCCNC(=N)N)[C@@H](C)CC)C(C)C)C(=O)N[C@@H](C)C(=O)N[C@H](C(=O)N[C@@H](C)C(=O)N[C@@H](CC(C)C)C(=O)N[C@@H](C)C(=O)N[C@@H](CCCNC(=N)N)C(=O)O)C(C)C [Peptide P33_4R_5] (H-RLGIAVALRRPALGIAVALAR-OH) | 12.50 µg/mL |
| CC[C@H](C)[C@H](NC(=O)CNC(=O)[C@H](CC(C)C)NC(=O)[C@H](CCCNC(=N)N)NC(=O)[C@@H]1CCCN1C(=O)[C@H](CCCNC(=N)N)NC(=O)[C@H](CCCNC(=N)N)NC(=O)[C@H](CC(C)C)NC(=O)[C@H](C)NC(=O)[C@@H](NC(=O)[C@H](C)NC(=O)[C@@H](NC(=O)CNC(=O)[C@H](CC(C)C)NC(=O)[C@@H](N)CCCNC(=N)N)[C@@H](C)CC)C(C)C)C(=O)N[C@@H](C)C(=O)N[C@H](C(=O)N[C@@H](C)C(=O)N[C@@H](CC(C)C)C(=O)N[C@@H](C)C(=O)N[C@@H](C)C(=O)O)C(C)C [Peptide P33_4R_6] (H-RLGIAVALRRPRLGIAVALAA-OH) | 12.50 µg/mL |
| CC(C)C[C@H](NC(=O)CNC(=O)[C@H](CCCNC(=N)N)NC(=O)[C@@H]1CCCN1C(=O)[C@H](CCCNC(=N)N)NC(=O)[C@H](C)NC(=O)[C@@H](NC(=O)[C@H](CC(C)C)NC(=O)[C@H](C)NC(=O)[C@H](CC(C)C)NC(=O)CNC(=O)[C@H](CC(C)C)NC(=O)CNC(=O)[C@@H](N)CCCNC(=N)N)C(C)C)C(=O)NCC(=O)N[C@@H](CC(C)C)C(=O)N[C@@H](C)C(=O)N[C@@H](CC(C)C)C(=O)N[C@H](C(=O)N[C@@H](C)C(=O)N[C@@H](CCCNC(=N)N)C(=O)O)C(C)C [R9A, R20A] (H-RGLGLALVARPRGLGLALVAR-OH) | 50.00 µg/mL |
| CC(C)C[C@H](NC(=O)CNC(=O)[C@H](CCCNC(=N)N)NC(=O)[C@@H]1CCCN1C(=O)[C@H](CCCNC(=N)N)NC(=O)[C@H](C)NC(=O)[C@@H](NC(=O)[C@H](CC(C)C)NC(=O)[C@H](C)NC(=O)[C@H](CC(C)C)NC(=O)CNC(=O)[C@H](CC(C)C)NC(=O)CNC(=O)[C@@H](N)CCCNC(=N)N)C(C)C)C(=O)NCC(=O)N[C@@H](CC(C)C)C(=O)N[C@@H](C)C(=O)N[C@@H](CC(C)C)C(=O)N[C@H](C(=O)N[C@@H](CCCNC(=N)N)C(=O)N[C@@H](C)C(=O)O)C(C)C [R9A, R21A] (H-RGLGLALVARPRGLGLALVRA-OH) | >100.00 µg/mL |
| CC(C)C[C@H](NC(=O)CNC(=O)[C@H](CCCNC(=N)N)NC(=O)[C@@H]1CCCN1C(=O)[C@H](CCCNC(=N)N)NC(=O)[C@H](CCCNC(=N)N)NC(=O)[C@H](CO)NC(=O)[C@H](CC(C)C)NC(=O)[C@H](C)NC(=O)[C@H](CC(C)C)NC(=O)CNC(=O)[C@H](CC(C)C)NC(=O)CNC(=O)[C@@H](N)CCCNC(=N)N)C(=O)NCC(=O)N[C@@H](CC(C)C)C(=O)N[C@@H](C)C(=O)N[C@@H](CC(C)C)C(=O)N[C@@H](CO)C(=O)N[C@@H](CCCNC(=N)N)C(=O)N[C@@H](CCCNC(=N)N)C(=O)O [V7S (P2)] (H-RGLGLALSRRPRGLGLALSRR-OH) | 100.00 µg/mL |

— publication PMC10065276, “Enhanced therapeutic window for antimicrobial Pept-ins by investigating their structure-activity relationship” (PLOS ONE, 2023)
